Experiments:
A3 cells = assay: A3 cell numbers and viability; type: cell-based, human
Description: Figure 4. Anticancer properties overlap between OGG1 loss and OGG1 inhibitors. (A) Viability of T-cell acute […] leukemia cell lines treated for 5 days with the indicated doses TH5487. Data are average ±SD of independent experiments (A3, n = 5; Jurkat, n = 3; MOLT-4, n = 4; CCRF-CEM, n = 3). (B) Relative cell numbers and (C) viability (%) for A3 cells treated for 5 days with 10 μM TH5487. Data are average ±SD of six replicates from three independent experiments. (D) Induction of apoptosis in A3 cells treated for 72 h TH5487 and stained for Annexin V. Data are average ±SD of three independent experiments. (E) A3 cells transfected with shRNA targeting OGG1 were treated with doxycycline for 6 days and stained for Annexin V. Data are average ±SD of two independent experiments. (F) Scheme for recovery experiment in which A3 OGG1-shRNA cells or A3 cells were silenced or inhibited for 6 days with doxycycline (200 nM) or TH5487 (10 μM). […] Data are average ±SD of 2–6 technical replicates representative of two independent experiments (I). Scheme for off-target effect evaluation in which A3 OGG1-shRNA cells were exposed to doxycycline for six days and after that, cells were exposed to TH5487 (10 μM) for 48 h followed by measurements of cell numbers (J) and viability by trypan blue exclusion (K). Data are average ±SD of two technical replicates from four independent experiments. Statistical significance was determined using unpaired, two-sided t-tests (*P < 0.05, **P < 0.01, ***P < 0.001, ****P < 0.0001, ns, non-significant).

[1] = test system: Ogg1−/− mouse embryonic fibroblasts; assay: Colony formation assay; type: cell-based; details: up to 20 μM
Description: The indicated concentrations TH5487 were spotted in 6-well plates using a Tecan D300e digital dispenser. 200–500 cells/well H460, ACHN, Ogg1^−/− mouse embryonic fibroblasts and MRC5 cells were then seeded at 200–500 cells/well and incubated for 7–11 days. Colonies exceeding 50 cells were fixed, stained and enumerated as above.
Figure 3. The OGG1 inhibitor TH5487 is selectively toxic to oncogene-expressing cells and cancer cell lines. (A) Close-up view of ligand TH5487 (green) binding to human OGG1. Important residues in the binding site are marked, hydrogen bond interactions are shown in black dashed line, water (red sphere)-mediated interactions in grey dashed line. (B) Comparison between the binding of ligand TH5487 (green) to human OGG1 (gray) with the structure of TH5675 (pink) bound to mouse OGG1 (yellow, PDB 6G3Y). (C) Viability of BJ-Tert and BJ-Ras cells exposed to the indicated concentrations TH5487 for five days. Data are average ±SD of four technical replicates from two independent experiments. (D) Clonogenic survival of cell lines exposed to TH5487. The cancer cell lines ACHN and H460, and the non-transformed cell lines MRC5 and Ogg1^−/− mouse embryonic fibroblasts (MEF) were incubated for 6–11 days in the presence of the indicated concentrations TH5487, followed by colony enumeration. […]

[2] = test system: OGG1 substrate lesions in A3 cells; assay: OGG1-modified Comet assay; type: cell-based, human; details: 10 μM, 72 h
Description: 8-oxodG detection in genomic DNA through LC–MS/MS ([39]) and single-cell electrophoresis ([40]) were performed as described.
Figure 5. Effect of TH5487 on DNA lesions, DNA damage markers and DNA replication. (A) 8-oxodG accumulation in A3 cells. A3 cells were treated with 20 mM KBrO3 for 1 h or with 10 μM TH5487 for the indicated times, and the amount of genomic 8-oxodG was quantified with LC-MS/MS. Data are average ±SD of five replicates from two independent experiments. (B) Comet assay. A3 cells were treated with 10 μM TH5487 for 72 h and strand-breaks and OGG1 substrate lesions were analyzed with the OGG1-modified Comet assay. Representative images of cells are shown. (C) Violin blot of Comet tail moment. Cells were treated as in B, and the tail moment of the cells were analyzed using blinded automatic analysis (n = 200 per condition from two independent experiments). The full line indicates median, and the dotted lines quartiles. (D) Violin blot of phosphorylated γH2AX intensity. A3 cells were treated with 0.1% DMSO or 10 μM TH5487 for the indicated times and stained for phosphorylated γH2AX. […] At least 33 000 nuclei per group were quantified from three independent experiments. […] At least 300 forks were scored per condition. Statistical significance was determined using unpaired, two-sided t-tests (**P < 0.01, ***P < 0.001 and ****P < 0.0001; ns, non-significant).

With `O=C(Nc1ccc(I)cc1)N1CCC(n2c(=O)[nH]c3c(Br)cccc32)CC1` [TH5487] the “Recovery of proliferation after release into fresh medium” value (A3 cells; A3 cells exposed for 6 days to 10 μM) was “able to divide normally”, the Cell viability (A3 cells; A3 cells, 10 μM, after 72 h) was “mild decrease in cell viability” and the “Proliferation (relative cell numbers)” value (A3 cells; A3 cells, 10 μM, up to 72 h) was “slower proliferation”. For the same molecule, the Clonogenic potential [1] was “unaffected” and the “Increase in OGG1-induced tail length (Comet)” value [2] was about 50%.
